Reference: PubChem BioAssay AID224 (DTP/NCI, 2004)
“And” between values parts separate entries of the source, which are not always exact repeats. Equal values may be shown once. Inconclusive results and toxic doses are left out.

Test system: P335 leukemia ip, BDF1 mice, survival T/C %
Test: NCI In Vivo Anticancer Drug Screen. Data for tumor model P335 Leukemia (intraperitoneal) in B6D2F1 (BDF1) mice
Details: endpoint: mean survival time, higher = longer survival
Protocol: The antitumor activity of compounds was measured in mice bearing transplantable tumors. Survival or tumor size were measured and the results are expressed as the measurement made in the treated group (T) divided by the measurement made in the vehicle treated control group (C). The tumor model used in this assay is P335 Leukemia (intraperitoneal) in B6D2F1 (BDF1) mice

[1] = dose: 6.25 mg/kg/injection, schedule: Q01DX Z (ip), vehicle: saline

SMILES: Nc1nc(=S)c2[nH]cnc2[nH]1
- T/C (dose: 0.12 mg/kg/injection, schedule: Q01DX Z (ip), vehicle: carboxymethylcellulose (CMC)): 92 % of control
- T/C (dose: 0.25 mg/kg/injection, schedule: Q01DX Z (ip), vehicle: carboxymethylcellulose (CMC)): 95 % of control
- T/C (dose: 0.5 mg/kg/injection, schedule: Q01DX Z (ip), vehicle: carboxymethylcellulose (CMC)): 95 % of control
- T/C (dose: 1.0 mg/kg/injection, schedule: Q01DX Z (ip), vehicle: carboxymethylcellulose (CMC)): 101 % of control
- T/C (dose: 2.0 mg/kg/injection, schedule: Q01DX Z (ip), vehicle: carboxymethylcellulose (CMC)): 95 % of control

SMILES: O=P1(N(CCCl)CCCl)NCCCO1 (configuration not stated)
- T/C [1]: 113 % of control
- T/C (dose: 200.0 mg/kg/injection, schedule: Q01DX Z (ip), vehicle: saline): 107 % of control

SMILES: COC12C(COC(N)=O)C3=C(C(=O)C(C)=C(N)C3=O)N1CC1C2N1C (configuration not stated)
- T/C (dose: 0.63 mg/kg/injection, schedule: Q01DX Z (ip), vehicle: carboxymethylcellulose (CMC)): 110 % of control
- T/C (dose: 5.0 mg/kg/injection, schedule: Q01DX Z (ip), vehicle: carboxymethylcellulose (CMC)): 160 % of control and 168 % of control

SMILES: O=C(O)CCCc1ccc(N(CCCl)CCCl)cc1
- T/C (dose: 6.25 mg/kg/injection, schedule: Q01DX Z (ip), vehicle: carboxymethylcellulose (CMC)): 89 % of control
- T/C (dose: 12.5 mg/kg/injection, schedule: Q01DX Z (ip), vehicle: carboxymethylcellulose (CMC)): 89 % of control

SMILES: CN(Cc1cnc2nc(N)nc(N)c2n1)c1ccc(C(=O)N[C@@H](CCC(=O)O)C(=O)O)cc1
- T/C (dose: 0.31 mg/kg/injection, schedule: Q01DX Z (ip), vehicle: other): 110 % of control
- T/C (dose: 3.0 mg/kg/injection, schedule: Q01DX Z (ip), vehicle: other): 88 % of control

SMILES: CN(N=O)C(=O)NC(C=O)C(O)C(O)C(O)CO (configuration not stated)
- T/C [1]: 96 % of control
- T/C (dose: 12.5 mg/kg/injection, schedule: Q01DX Z (ip), vehicle: saline): 112 % of control
- T/C (dose: 25.0 mg/kg/injection, schedule: Q01DX Z (ip), vehicle: saline): 113 % of control
- T/C (dose: 100.0 mg/kg/injection, schedule: Q01DX Z (ip), vehicle: saline): 151 % of control

SMILES: O[C@H](CN1CC1)[C@@H](O)CN1CC1
- T/C (dose: 1.8 micrograms/kg/injection, schedule: Q01DX Z (ip), vehicle: carboxymethylcellulose (CMC)): 95 % of control
- T/C (dose: 3.7 micrograms/kg/injection, schedule: Q01DX Z (ip), vehicle: carboxymethylcellulose (CMC)): 111 % of control
- T/C (dose: 7.5 micrograms/kg/injection, schedule: Q01DX Z (ip), vehicle: carboxymethylcellulose (CMC)): 119 % of control
- T/C (dose: 15.0 micrograms/kg/injection, schedule: Q01DX Z (ip), vehicle: carboxymethylcellulose (CMC)): 109 % of control

SMILES: OCC1OC(n2cnc3c(Cl)ncnc32)C(O)C1O (configuration not stated)
- T/C (dose: 7.8 mg/kg/injection, schedule: Q01DX Z (ip), vehicle: carboxymethylcellulose (CMC)): 101 % of control
- T/C (dose: 15.6 mg/kg/injection, schedule: Q01DX Z (ip), vehicle: carboxymethylcellulose (CMC)): 105 % of control

SMILES: COS(C)(=O)=O
- T/C (dose: 25.0 mg/kg/injection, schedule: Q01DX Z (ip), vehicle: water): 87 % of control
- T/C (dose: 50.0 mg/kg/injection, schedule: Q01DX Z (ip), vehicle: water): 101 % of control
- T/C (dose: 100.0 mg/kg/injection, schedule: Q01DX Z (ip), vehicle: water): 101 % of control

SMILES: CS(=O)(=O)OCC(O)C(O)COS(C)(=O)=O (configuration not stated)
- T/C (dose: 187.5 mg/kg/injection, schedule: Q01DX Z (ip), vehicle: saline): 96 % of control
- T/C (dose: 375.0 mg/kg/injection, schedule: Q01DX Z (ip), vehicle: saline): 111 % of control
- T/C (dose: 750.0 mg/kg/injection, schedule: Q01DX Z (ip), vehicle: saline): 102 % of control

SMILES: C[C@H]1C(=O)O[C@@H]2CCN3CC=C(COC(=O)[C@](C)(O)[C@@]1(C)O)[C@H]23
- T/C (dose: 3.75 mg/kg/injection, schedule: Q01DX Z (ip), vehicle: carboxymethylcellulose (CMC)): 87 % of control
- T/C (dose: 7.5 mg/kg/injection, schedule: Q01DX Z (ip), vehicle: carboxymethylcellulose (CMC)): 94 % of control
- T/C (dose: 15.0 mg/kg/injection, schedule: Q01DX Z (ip), vehicle: carboxymethylcellulose (CMC)): 91 % of control and 93 % of control
- T/C (dose: 30.0 mg/kg/injection, schedule: Q01DX Z (ip), vehicle: carboxymethylcellulose (CMC)): 96 % of control

SMILES: C[C@]12C=CC(=O)C=C1CC[C@@H]1[C@@H]2[C@@H](O)C[C@@]2(C)[C@H]1CC[C@]2(O)C(=O)CO
- T/C (dose: 2.0 mg/kg/injection, schedule: Q01DX Z (sc), vehicle: steriod suspending solution): 97 % of control
- T/C (dose: 4.0 mg/kg/injection, schedule: Q01DX Z (sc), vehicle: steriod suspending solution): 103 % of control and 111 % of control
- T/C (dose: 8.0 mg/kg/injection, schedule: Q01DX Z (sc), vehicle: steriod suspending solution): 101 % of control and 117 % of control
- T/C (dose: 16.0 mg/kg/injection, schedule: Q01DX Z (sc), vehicle: steriod suspending solution): 95 % of control and 117 % of control
- T/C (dose: 32.0 mg/kg/injection, schedule: Q01DX Z (sc), vehicle: steriod suspending solution): 95 % of control

SMILES: Clc1ccc(C(c2ccccc2Cl)C(Cl)Cl)cc1 (configuration not stated)
- T/C (dose: 12.5 mg/kg/injection, schedule: Q01DX Z (sc), vehicle: steriod suspending solution): 96 % of control
- T/C (dose: 25.0 mg/kg/injection, schedule: Q01DX Z (sc), vehicle: steriod suspending solution): 96 % of control
- T/C (dose: 50.0 mg/kg/injection, schedule: Q01DX Z (sc), vehicle: steriod suspending solution): 97 % of control
- T/C (dose: 100.0 mg/kg/injection, schedule: Q01DX Z (sc), vehicle: steriod suspending solution): 92 % of control
